24 compounds from patent US20070179060A1, “6-(Poly-substituted aryl)-4-aminopicolinates and their use as herbicides” (priority 2006, published 2007) can be followed below.

Data set [1] relates to velvetleaf (Abutilon theophrasti). Put plainly: Postemergence herbicidal activity. The format is in vivo. Conditions: post-emergent, 140 g ai/ha, after 14 days; for pest or weed control at 140 g/ha: Abutilon theophrasti, post-emergence, 336 h, read-out: % Control ABUTH. As for the experimental part: (§1) Seeds or nutlets of the desired test plant species were planted in Sun Gro MetroMix® 306 planting mixture, which typically has a pH of 6.0 to 6.8 and an organic matter content of about 30 percent, in plastic pots with a surface area of 64 square centimeters. When required to ensure good germination and healthy plants, a fungicide treatment and/or other chemical or physical treatment was applied. The plants were grown for 7-21 days in a greenhouse with an approximate 15 hour photoperiod which was maintained at about 23-29° C. during the day and 22-28° C. during the night. Nutrients and water were added on a regular basis and supplemental lighting was provided with overhead metal halide 1000-Watt lamps as necessary. The plants were employed for testing when they reached the first or second true leaf stage. […] The concentrated stock solutions obtained were diluted with 20 mL of an aqueous mixture containing acetone, water, isopropyl alcohol, DMSO, Atplus 411F crop oil concentrate, and Triton® X-155 surfactant in a 48.5:39:10:1.5:1.0:0.02 v/v ratio to obtain spray solutions containing the highest application rates. […] Compound requirements are based upon a 12 mL application volume at a rate of 187 L/ha. Formulated compounds were applied to the plant material with an overhead Mandel track sprayer equipped with a […] nozzles calibrated to deliver 187 L/ha over an application area of 0.503 square meters at a spray height of 18 inches (43 cm) above the average plant canopy height. Control plants were sprayed in the same manner with the solvent blank. The treated plants and control plants were placed in a greenhouse as described above and watered by sub-irrigation to prevent wash-off of the test compounds. […] By applying the well-accepted probit analysis as described by J. Berkson in Journal of the American Statistical […], 48, 565 (1953) and by D.

Data set [2] relates to redroot pigweed (Amaranthus retroflexus). Description: Postemergence herbicidal activity. The format is in vivo. Conditions: post-emergent, 140 g ai/ha, after 14 days; for pest or weed control at 140 g/ha: Amaranthus retroflexus, post-emergence, 336 h, read-out: % Control AMARE. As for the experimental part: as §1
Data set [3] has as its system lambsquarter (Chenopodium album). Put plainly: Postemergence herbicidal activity. The format is in vivo. Particulars: post-emergent, 140 g ai/ha, after 14 days; for pest or weed control at 140 g/ha: Chenopodium album, post-emergence, 336 h, read-out: % Control CHEAL. As for the experimental part: as §1

What is called melting point is the temperature, or range, at which the solid turns liquid. Compound `COC(=O)c1nc(-c2ccc(Cl)c(C#N)c2F)cc(N)c1Cl` [Compound 2, 4-Amino-3-chloro-6-(4-chloro-3-cyano-2-fluorophenyl)pyridine-2-carboxylic acid methyl ester] displayed a melting point of 189 to 190 °C. Besides, the pest or weed control at 140 g/ha in data set [1] came out at 85%. In addition, the pest or weed control at 140 g/ha in data set [2] was 90%. Besides, the pest or weed control at 140 g/ha in data set [3] was determined as 80%.

For the compound `COC(=O)c1nc(-c2ccc(Cl)c(OCC(F)F)c2F)cc(N)c1Cl` [Compound 8, 4-Amino-3-chloro-6-[4-chloro-2-fluoro-3-(2,2-difluoroethoxy)phenyl]pyridine-2-carboxylic acid methyl ester], the melting point is 134 to 136 °C. The pest or weed control at 140 g/ha in data set [1] amounted to 80%. For the same compound, the pest or weed control at 140 g/ha in data set [2] was 100%. Besides, the pest or weed control at 140 g/ha in data set [3] stood at 95%.

On to `CCOc1cc(-c2cc(N)c(Cl)c(C(=O)OC)n2)c(F)cc1Cl` [Compound 9, 4-Amino-3-chloro-6-(4-chloro-2-fluoro-5-ethoxyphenyl)pyridine-2-carboxylic acid methyl ester], for which the melting point was in the range of 115 to 116 °C. The pest or weed control at 140 g/ha in data set [1] worked out at 85%. The pest or weed control at 140 g/ha in data set [2] came to 100%. The pest or weed control at 140 g/ha in data set [3] was determined as 100%.

In turn, `COCCOc1c(Cl)ccc(-c2cc(N)c(Cl)c(C(=O)OC)n2)c1F` [Compound 11, 4-Amino-3-chloro-6-[4-chloro-2-fluoro-3-(methoxyethoxy)phenyl]pyridine-2-carboxylic acid methyl ester] came in with a melting point of 89 to 90 °C. The pest or weed control at 140 g/ha in data set [1] was determined as 90%. The pest or weed control at 140 g/ha in data set [2] came out at 95%. For the same compound, in data set [3], the pest or weed control at 140 g/ha came out at 80%.

The compound `COC(=O)c1nc(-c2cc(OC)c(Cl)cc2F)cc(NC(C)=O)c1Cl` [Compound 18, 4-acetylamino-3-chloro-6-(4-chloro-2-fluoro-5-methoxy-phenyl)pyridine-2-carboxylic acid methyl ester] yielded a melting point of 180 to 182 °C.

For the compound `COC(=O)c1nc(-c2ccc(Cl)c(C)c2F)cc(NC(C)=O)c1Cl` [Compound 19, 4-Acetylamino-3-chloro-6-(4-chloro-2-fluoro-3-methylphenyl)pyridine-2-carboxylic acid methyl ester], the melting point lay in the range of 151 to 152 °C.

Consider `COC(=O)c1nc(-c2ccc(Cl)c(OC)c2F)cc(NC(C)=O)c1Cl` [Compound 20, 4-Acetylamino-3-chloro-6-(4-chloro-2-fluoro-3-methoxyphenyl)pyridine-2-carboxylic acid methyl ester], for which the melting point lay within 159 to 160 °C.

Take `COC(=O)c1nc(-c2ccc(F)c(C)c2F)cc(NC(C)=O)c1Cl` [Compound 23, 4-acetylamino-3-chloro-6-(2,4-difluoro-3-methylphenyl)-pyridine-2-carboxylic acid methyl ester]: the melting point was in the range of 152 to 153 °C.

Turning to `COC(=O)c1nc(-c2ccc(Cl)c(C)c2Cl)cc(NC(C)=O)c1Cl` [Compound 24, 4-Acetylamino-3-chloro-6-(2,4-dichloro-3-methylphenyl)pyridine-2-carboxylic acid methyl ester], the melting point was 172 to 174 °C.

In turn, `COC(=O)c1nc(-c2ccc(Cl)c(C(F)F)c2Cl)cc(NC(C)=O)c1Cl` [Compound 30, 4-Acetylamino-3-chloro-6-[2,4-dichloro-3-(difluoromethyl)phenyl]pyridine-2-carboxylic acid, methyl ester] returned a melting point of 152 to 153 °C. The pest or weed control at 140 g/ha in data set [1] was 100%. Also, in data set [2], the pest or weed control at 140 g/ha was 90%. Further, the pest or weed control at 140 g/ha in data set [3] turned out to be 95%.

The compound `COC(=O)c1nc(-c2ccc(F)c(F)c2F)cc(NC(C)=O)c1Cl` [Compound 33, 4-Acetylamino-3-chloro-6-(2,3,4-trifluorophenyl)pyridine-2-carboxylic acid, methyl ester] came in with a melting point of 169 to 171 °C. Also, in data set [1], the pest or weed control at 140 g/ha worked out at 95%. In data set [2], the pest or weed control at 140 g/ha amounted to 95%. The pest or weed control at 140 g/ha in data set [3] came to 90%.

Consider `COCOc1c(Cl)ccc(-c2cc(NC(C)=O)c(Cl)c(C(=O)OC)n2)c1F` [Compound 34, 4-Acetylamino-3-chloro-6-(4-chloro-2-fluoro-3-methoxymethoxy-phenyl)pyridine-2-carboxylic acid, methyl ester], for which the melting point fell in the range of 122 to 123 °C.

`COC(=O)c1nc(-c2c(F)cc(Cl)c(OC)c2F)cc(NC(C)=O)c1Cl` [Compound 40, 4-Acetylamino-3-chloro-6-(4-chloro-2,6-difluoro-3-methoxyphenyl)pyridine-2-carboxylic acid, methyl ester] had a melting point of 144 to 144.5 °C. The pest or weed control at 140 g/ha in data set [1] stood at 95%. For the same compound, the pest or weed control at 140 g/ha in data set [2] was determined as 95%. For the same compound, the pest or weed control at 140 g/ha in data set [3] was 100%.

Compound `COC(=O)c1nc(-c2ccc(F)c(C)c2F)cc(N)c1Cl` [Compound 47, 4-Amino-3-chloro-6-(2,4-difluoro-3-methylphenyl)pyridine-2-carboxylic acid methyl ester] showed a melting point of 129 to 130 °C. Further, the pest or weed control at 140 g/ha in data set [1] is 100%. In data set [2], the pest or weed control at 140 g/ha came to 100%. Further, the pest or weed control at 140 g/ha in data set [3] is 100%.

In turn, `COC(=O)c1nc(-c2ccc(F)c(F)c2F)cc(N)c1Cl` [Compound 67, 4-Amino-3-chloro-6-(2,3,4-trifluorophenyl)pyridine-2-carboxylic acid, methyl ester] registered a melting point of 163 to 164 °C. Moreover, in data set [1], the pest or weed control at 140 g/ha turned out to be 100%. Also, the pest or weed control at 140 g/ha in data set [2] stood at 100%. In addition, in data set [3], the pest or weed control at 140 g/ha came to 100%.

`COCOc1c(Cl)ccc(-c2cc(N)c(Cl)c(C(=O)OC)n2)c1F` [Compound 68, 4-Amino-3-chloro-6-(4-chloro-2-fluoro-3-methoxymethoxyphenyl)pyridine-2-carboxylic acid, methyl ester] gave a melting point of 99 °C. In addition, the pest or weed control at 140 g/ha in data set [1] worked out at 95%. In data set [2], the pest or weed control at 140 g/ha was determined as 100%. The pest or weed control at 140 g/ha in data set [3] was found to be 100%.

For the compound `COC(=O)c1nc(-c2ccc(Cl)c(OC(F)F)c2F)cc(N)c1Cl` [Compound 69, 4-Amino-3-chloro-6-(4-chloro-2-fluoro-3-difluoromethoxyphenyl)pyridine-2-carboxylic acid, methyl ester], the melting point came out at 164 °C. Also, the pest or weed control at 140 g/ha in data set [1] came out at 100%. In data set [2], the pest or weed control at 140 g/ha worked out at 100%. Also, in data set [3], the pest or weed control at 140 g/ha came to 100%.

Consider `COC(=O)c1nc(-c2ccc(C(F)F)c(OC)c2Cl)cc(N)c1Cl` [Compound 79, 4-Amino-3-chloro-6-(2-chloro-4-difluoromethyl-3-methoxyphenyl)pyridine-2-carboxylic acid, methyl ester], for which the melting point lay within 134 to 136 °C. In addition, the pest or weed control at 140 g/ha in data set [1] is 95%. For the same compound, the pest or weed control at 140 g/ha in data set [2] worked out at 90%. For the same compound, in data set [3], the pest or weed control at 140 g/ha came to 100%.

Turning to `COC(=O)c1nc(-c2sc(F)c(CF)c2Cl)cc(N)c1Cl` [Compound 85, 4-amino-3-chloro-6-(4-chloro-2-fluoro-3-fluoromethylthiophenyl)pyridine-2-carboxylic acid methyl ester], the melting point was 104 to 105 °C.

With `CCOc1cc(-c2cc(N)c(Cl)c(C(=O)O)n2)c(F)cc1Cl` [Compound 109, 4-Amino-3-chloro-6-(4-chloro-2-fluoro-5-ethoxyphenyl)pyridine-2-carboxylic acid], the melting point was 178 to 179 °C (dec.).

Take `CCCCOc1c(Cl)ccc(-c2cc(N)c(Cl)c(C(=O)O)n2)c1F` [Compound 124, 4-Amino-3-chloro-6-(4-chloro-3-butoxy-2-fluorophenyl)pyridine-2-carboxylic acid]: the melting point is 157 to 158 °C (dec.).

`CC(C)(F)c1c(Cl)ccc(-c2cc(N)c(Cl)c(C(=O)O)n2)c1Cl` [Compound 127]: in data set [1], the “% Control ABUTH” value is 90%. The “% Control AMARE” value in data set [2] was determined as 100%. For the same compound, in data set [3], the “% Control CHEAL” value is on record as 100%.

Regarding `CCc1c(Cl)ccc(-c2cc(N)c(Cl)c(C(=O)O)n2)c1F` [Compound 128, 4-Amino-3-chloro-6-(4-chloro-3-ethyl-2-fluorophenyl)pyridine-2-carboxylic acid], the melting point is 192 to 193 °C (dec.).

`COCOc1c(Cl)ccc(-c2cc(N)c(Cl)c(C(=O)O)n2)c1F` [Compound 132, 4-Amino-3-chloro-6-(4-chloro-2-fluoro-3-methoxymethoxyphenyl)pyridine-2-carboxylic acid]: the melting point is 159 °C (dec.).
